# Legend:
# Assay type in all cases: cell-based
# E. coli BL21 = test: MIC against Gram-negative bacteria: E. coli BL21; conditions: 5×10^5 CFU/mL
# Summary of the method: (§1)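 Growth inhibition by human EGF domain proteins was scored in LB liquid culture seeded at 5×10^5 CFU/mL. Protein was applied as a two-fold dilution series in triplicate, with shaking incubation at 37° C; MIC is the lowest concentration giving no growth.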
# Pseudomonas aeruginosa = test: MIC against Gram-negative bacteria: Pseudomonas aeruginosa; conditions: 5×10^5 CFU/mL
# Summary of the method: as §1
# Klebsiella pneumonia = test: MIC against Gram-negative bacteria: Klebsiella pneumonia; conditions: 5×10^5 CFU/mL
# Summary of the method: as §1
# Citrobacter diversus = test: MIC against Gram-negative bacteria: Citrobacter diversus; conditions: 5×10^5 CFU/mL
# Summary of the method: as §1
# Serratia marcescens = test: MIC against Gram-negative bacteria: Serratia marcescens; conditions: 5×10^5 CFU/mL
# Summary of the method: as §1
# Aeromonas hydrophila = test: MIC against Gram-negative bacteria: Aeromonas hydrophila; conditions: 5×10^5 CFU/mL
# Summary of the method: as §1
# Proteus mirabilis = test: MIC against Gram-negative bacteria: Proteus mirabilis; conditions: 5×10^5 CFU/mL
# Summary of the method: as §1
# Proteus vulgaris = test: MIC against Gram-negative bacteria: Proteus vulgaris; conditions: 5×10^5 CFU/mL
# Summary of the method: as §1
# Moraxella catarrhalis = test: MIC against Gram-negative bacteria: Moraxella catarrhalis; conditions: 5×10^5 CFU/mL
# Summary of the method: as §1
# Enterobacter cloacae = test: MIC against Gram-negative bacteria: Enterobacter cloacae; conditions: 5×10^5 CFU/mL
# Summary of the method: as §1
# E. coli DH5α = test: Antibacterial activity: MIC and growth curve against E. coli DH5α in 96-well plate; conditions: minimal inhibitory concentration against E. coli DH5α; 96-well plate, 5×10^5 CFU/mL, 37° C., judged after 8 h
# Summary of the method: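 Log-phase bacteria (OD600 ~0.5) resuspended in LB at 5×10^5 CFU/mL, exposed to recombinant protein at 50, 25, 12.5 μg/mL final in triplicate, 37 °C shaking at 175 rpm. OD600 read every 30 min; MIC is lowest concentration showing no growth.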
# [1] = 10 h cultivation at 37° C., two-fold serial dilution
Substance,"MIC E. coli BL21 (E. coli BL21; 96-well plate, 37° C., 10 h) [µg/mL]","MIC P. aeruginosa (Pseudomonas aeruginosa; 96-well plate, 37° C., 10 h) [µg/mL]","MIC K. pneumonia (Klebsiella pneumonia; 96-well plate, 37° C., 10 h) [µg/mL]","MIC C. diversus (Citrobacter diversus; 96-well plate, 37° C., 10 h) [µg/mL]","MIC S. marcescens (Serratia marcescens; 96-well plate, 37° C., 10 h) [µg/mL]","MIC A. hydrophila (Aeromonas hydrophila; 96-well plate, 37° C., 10 h) [µg/mL]","MIC P. mirabilis (Proteus mirabilis; 96-well plate, 37° C., 10 h) [µg/mL]","MIC P. vulgaris (Proteus vulgaris; 96-well plate, 37° C., 10 h) [µg/mL]","MIC M. catarrhalis (Moraxella catarrhalis; 96-well plate, 37° C., 10 h) [µg/mL]","MIC E. cloacae (Enterobacter cloacae; 96-well plate, 37° C., 10 h) [µg/mL]",MIC (E. coli DH5α) [µg/mL],other results
PRT683 (DIDECSQDPSLCLPHGACKNLQGSYVCVCDEGFTPTQDQHGCE; listed as Homo sapiens),25,50,25,25,25,50,12.5,50,25,12.5,12.5,–
PRT718 (MTLCSALNCQYQCHETPYGGACFCPPGYIINHNDSRTCV; listed as Homo sapiens),25,50,25,25,12.5,25,25,50,12.5,25,12.5,–
PRT239 (SAGPCTPNPCHNGGTCEISEAYRGDTFIGYVCKCPRGFNGIHCQ; listed as Homo sapiens),–,–,–,–,–,–,–,–,–,–,25,"MIC (μg/mL) E. coli BL21 (E. coli BL21; E. coli BL21, 10 h cultivation at 37° C.): 12.5 µg/mL; MIC (μg/mL) P. aeruginosa (Pseudomonas aeruginosa; P. aeruginosa, 10 h cultivation at 37° C.): 12.5 µg/mL; MIC (μg/mL) K. pneumonia (Klebsiella pneumonia; K. pneumonia, 10 h cultivation at 37° C.): 12.5 µg/mL; MIC (μg/mL) C. diversus (Citrobacter diversus; C. diversus, 10 h cultivation at 37° C.): 100 µg/mL; MIC (μg/mL) S. marcescens (Serratia marcescens; S. marcescens, 10 h cultivation at 37° C.): 12.5 µg/mL; MIC (μg/mL) A. hydrophila (Aeromonas hydrophila; A. hydrophila, 10 h cultivation at 37° C.): 12.5 µg/mL; MIC (μg/mL) P. mirabilis (Proteus mirabilis; P. mirabilis, 10 h cultivation at 37° C.): 12.5 µg/mL; MIC (μg/mL) P. vulgaris (Proteus vulgaris; P. vulgaris, 10 h cultivation at 37° C.): 12.5 µg/mL; MIC (μg/mL) M. catarrhalis (Moraxella catarrhalis; M. catarrhalis, 10 h cultivation at 37° C.): 25 µg/mL; MIC (μg/mL) E. cloacae (Enterobacter cloacae; E. cloacae, 10 h cultivation at 37° C.): 12.5 µg/mL"
PRT1193 (DANECEGKPCLNAFSCKNLIGGYYCDCIPGWKGINCH; listed as Homo sapiens),–,–,–,–,–,–,–,–,–,–,12.5,MIC E. coli BL21 (E. coli BL21; [1]): 12.5 µg/mL; MIC P. aeruginosa (Pseudomonas aeruginosa; [1]): 12.5 µg/mL; MIC K. pneumonia (Klebsiella pneumonia; [1]): 25 µg/mL; MIC C. diversus (Citrobacter diversus; [1]): 25 µg/mL; MIC S. marcescens (Serratia marcescens; [1]): 12.5 µg/mL; MIC A. hydrophila (Aeromonas hydrophila; [1]): 12.5 µg/mL; MIC P. mirabilis (Proteus mirabilis; [1]): 50 µg/mL; MIC P. vulgaris (Proteus vulgaris; [1]): 25 µg/mL; MIC M. catarrhalis (Moraxella catarrhalis; [1]): 12.5 µg/mL; MIC E. cloacae (Enterobacter cloacae; [1]): 12.5 µg/mL
PRT689 (DNDECADEEPACEGGRCVNTVGSYHCTCEPPLVLDGSQRRCV; listed as Homo sapiens),25,50,12.5,12.5,25,50,25,12.5,50,25,100,–

# Reference: patent US9833497B2, “Human originated EGF domain proteins and use of the same” (CHENGDU SOURCEBIO LIMITED-LIABILITY COMPANY, priority 2013, dated 2017)
